In ChEMBL document CHEMBL1133177, “Application of similarity matrices and genetic neural networks in quantitative structure-activity relationships of 2- or 4-(4-Methylpiperazino)pyrimidines: 5-HT(2A) receptor antagonists” (J Med Chem, 2000):

Key:
[1] = biological target: T1, 5-hydroxytryptamine receptor 2A (Rattus norvegicus, UniProt P14842); test: Affinity for 5-hydroxytryptamine 2A receptor in rat brain cortex by ability to displace [3H]ketanserin; assay type: tissue-based
[2] = biological target: T1, 5-hydroxytryptamine receptor 2A; test: Affinity 5-hydroxytryptamine 2A receptor of the rat brain cortex was assessed on the basis of their ability to displace [3H]ketanserin
[3] = biological target: T1, 5-hydroxytryptamine receptor 2A; test: (§1) Affinity at 5-hydroxytryptamine 2A receptor of the rat brain cortex was assessed on the basis of their ability to displace [3H]ketanserin
[4] = biological target: T1, 5-hydroxytryptamine receptor 2A; test: as §1; remark: listed apart in the source

T1 sequence (P14842 whole entry): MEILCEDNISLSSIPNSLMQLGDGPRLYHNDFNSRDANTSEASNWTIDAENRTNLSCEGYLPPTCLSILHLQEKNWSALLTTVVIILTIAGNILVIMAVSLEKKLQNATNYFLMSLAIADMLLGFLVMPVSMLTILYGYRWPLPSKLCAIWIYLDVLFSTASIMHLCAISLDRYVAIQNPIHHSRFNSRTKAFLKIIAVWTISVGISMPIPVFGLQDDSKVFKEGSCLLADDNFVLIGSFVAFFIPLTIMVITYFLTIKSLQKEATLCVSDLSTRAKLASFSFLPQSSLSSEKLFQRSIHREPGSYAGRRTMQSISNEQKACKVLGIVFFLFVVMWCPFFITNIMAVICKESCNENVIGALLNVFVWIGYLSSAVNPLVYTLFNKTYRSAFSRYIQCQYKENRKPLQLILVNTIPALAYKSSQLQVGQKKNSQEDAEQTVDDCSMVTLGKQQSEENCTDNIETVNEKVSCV

SMILES | Ki [1] | Ki [2] | Ki [3] | Ki [4]
CN1CCN(c2nc(-c3ccoc3)cc(-c3cc4ccccc4s3)n2)CC1 | 55 nM |  |  | 
CN1CCN(c2nc(-c3ccsc3)cc(-c3cccs3)n2)CC1 | 20.9 nM |  |  | 
CN1CCN(c2nc(-c3ccco3)cc(-c3cc4ccccc4o3)n2)CC1 | 110 nM |  |  | 
CN1CCN(c2nc(-c3ccco3)cc(-c3cc4ccccc4s3)n2)CC1 | 37.2 nM |  |  | 
Cc1ccc(-c2cc(N3CCN(C)CC3)nc(Cl)n2)cc1 |  |  | 4.27 µM | 4.22 µM
CN1CCN(c2cc(-n3ccnc3)ncn2)CC1 |  |  | > 10 µM | > 10 µM
CN1CCN(c2nccc(-n3ccnc3)n2)CC1 | 380 nM | 384 nM |  | 

Other lines, results leading:

Ki [1] | Ki [2] | Ki [3] | Ki [4] | SMILES
40.7 nM | 41 nM |  |  | CN1CCN(c2nc(Cl)cc(-c3ccoc3)n2)CC1
37.2 nM |  |  |  | CN1CCN(c2nc(-c3ccco3)cc(-c3cccs3)n2)CC1
 |  | 6.03 µM | 5.96 µM | CN1CCN(c2cc(-c3ccco3)nc(Cl)n2)CC1
17 nM |  |  |  | Cc1c(-c2cccs2)nc(N2CCN(C)CC2)nc1-c1cccs1
 |  | 2.69 µM | 2.72 µM | CN1CCN(c2cc(-c3cccs3)nc(Cl)n2)CC1
 |  | 0.347 µM | 0.353 µM | CN1CCN(c2nc(Cl)cc(-c3cccs3)n2)CC1
191 nM |  |  |  | CN1CCN(c2nccc(-c3ccsc3)n2)CC1
575 nM | 582 nM |  |  | Cc1ccc(-c2cc(Cl)nc(N3CCN(C)CC3)n2)cc1
135 nM |  |  |  | CN1CCN(c2nc(-c3cc4ccccc4o3)cc(-c3cccn3C)n2)CC1
